Experimental data: patent publication US20090226395A1, “Pharmaceutical compositions of beta-lapachone and beta-lapachone analogs with improved tumor targeting potential” (ArQule, Inc., priority 2004, published 2009)

Columns and labels:
DLD-1 cells = assay: MTS cell viability assay, DLD-1 cells; format: cell-based
Experimental: (§1) Cell viability is determined by measuring the activity of dehydrogenase enzymes in metabolically active cells using a tetrazolium compound, MTS. The assay is performed as described in Promega Technical Bulletin No. 169 (CellTiter 96 Aqueous Non-Radioactive Cell Proliferation Assay). Two cell lines, DLD-1 and NCM-460 are assayed (see, e.g., Table 2). Cells are maintained at 37° C., 5% CO2. Adherent cells are maintained DMEM media (4.5 g/L glucose) supplemented with 15% heat-inactivated FBS, 10 mM L-glutamine, and 10 mM Hepes pH 7.5. Suspension cells are maintained in RPMI 1640 media, supplemented with 10% heat-inactivated FBS and 10 mM Hepes pH 7.5. […] Candidate compounds, including the polymer-modified therapeutics to be tested, are serially diluted in the indicated solvents are, further diluted in cell culture media, and then added to cells. […] MTS stock solution (MTS 2 gm/L, PMS […] in PBS) is added to the cells (final concentration MTS […] and PMS 7.67 mg/L) and incubated for 4 hours. […] The IC50 is defined as the concentration of compound that results in a 50% reduction in the number of viable cells as compared to control wells treated with DMSO only (0.33%) and 0.3% SDS, and is calculated using non-linear regression analysis.

[1] = Hydrolytic release of β-lapachone or ketal from poly-L-glutamate conjugates, monitored by HPLC; format: physicochemical
From the text: […] The complete release of 2,2-dimethyl-3,4-dihydro-2H-benzo[h]chromene-5,6-dione from the conjugate is achieved within 2-3 days as monitored by HPLC. In addition to the 2,2-dimethyl-3,4-dihydro-2H-benzo[h]chromene-5,6-dione peak, two additional peaks are detected in the HPLC chromatogram. These peaks are believed to be products of the degradation of 2,2-dimethyl-3,4-dihydro-2H-benzo[h]chromene-5,6-dione and an alternate hydrolysis product of conjugate. The concentration of released 2,2-dimethyl-3,4-dihydro-2′-1-benzo[h]chromene-5,6-dione is calculated by comparing the peak areas with the previously obtained calibration curve of 2,2-dimethyl-3,4-dihydro-2H-benzo[h]chromene-5,6-dione standard. […] Loading on the polymer is then calculated as follows: […]
The conjugate is dissolved in water at a concentration of about 0.3 mg/ml and sonicated to facilitate dissolution. […] The concentration of released 2,2-dimethyl-3,4-dihydro-2H-benzo[h]chromene-5,6-dione is determined by HPLC and the quantity calculated by comparing the peak areas with a previously obtained calibration curve of 2,2-dimethyl-3,4-dihydro-2H-benzo[h]chromene-5,6-dione standard, as described above in Example 10. […]

NCM-460 cells = assay: MTS cell viability assay, NCM-460 cells; format: cell-based
Experimental: as §1

[2] = biological target: T1, human DNA Topoisomerases I (Homo sapiens, UniProt P11387); conditions: cited from earlier work
T1 sequence (P11387 1-765): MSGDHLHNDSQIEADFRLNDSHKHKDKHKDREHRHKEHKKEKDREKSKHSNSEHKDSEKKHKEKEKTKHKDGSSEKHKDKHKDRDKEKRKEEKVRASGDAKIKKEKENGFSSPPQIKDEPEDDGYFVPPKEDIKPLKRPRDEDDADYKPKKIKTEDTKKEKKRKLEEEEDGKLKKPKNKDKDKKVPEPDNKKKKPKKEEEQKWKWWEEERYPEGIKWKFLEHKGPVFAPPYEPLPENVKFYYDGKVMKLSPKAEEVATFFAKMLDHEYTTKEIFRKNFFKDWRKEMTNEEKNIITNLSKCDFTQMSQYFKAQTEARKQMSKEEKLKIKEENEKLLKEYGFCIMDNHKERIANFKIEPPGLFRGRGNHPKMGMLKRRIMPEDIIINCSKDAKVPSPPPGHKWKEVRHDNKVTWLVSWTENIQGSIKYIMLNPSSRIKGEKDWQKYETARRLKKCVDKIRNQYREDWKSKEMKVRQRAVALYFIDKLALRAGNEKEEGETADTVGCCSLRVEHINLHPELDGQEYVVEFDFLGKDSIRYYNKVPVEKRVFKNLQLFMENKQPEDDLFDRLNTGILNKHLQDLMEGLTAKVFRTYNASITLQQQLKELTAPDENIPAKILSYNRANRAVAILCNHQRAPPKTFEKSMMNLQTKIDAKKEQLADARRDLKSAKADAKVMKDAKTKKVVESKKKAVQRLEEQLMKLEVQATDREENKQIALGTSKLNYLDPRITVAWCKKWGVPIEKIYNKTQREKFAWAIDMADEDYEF

[3] = biological target: human DNA Topoisomerases II (Homo sapiens, UniProt P11388); conditions: cited from earlier work
Chain of human DNA Topoisomerases II (P11388 whole entry): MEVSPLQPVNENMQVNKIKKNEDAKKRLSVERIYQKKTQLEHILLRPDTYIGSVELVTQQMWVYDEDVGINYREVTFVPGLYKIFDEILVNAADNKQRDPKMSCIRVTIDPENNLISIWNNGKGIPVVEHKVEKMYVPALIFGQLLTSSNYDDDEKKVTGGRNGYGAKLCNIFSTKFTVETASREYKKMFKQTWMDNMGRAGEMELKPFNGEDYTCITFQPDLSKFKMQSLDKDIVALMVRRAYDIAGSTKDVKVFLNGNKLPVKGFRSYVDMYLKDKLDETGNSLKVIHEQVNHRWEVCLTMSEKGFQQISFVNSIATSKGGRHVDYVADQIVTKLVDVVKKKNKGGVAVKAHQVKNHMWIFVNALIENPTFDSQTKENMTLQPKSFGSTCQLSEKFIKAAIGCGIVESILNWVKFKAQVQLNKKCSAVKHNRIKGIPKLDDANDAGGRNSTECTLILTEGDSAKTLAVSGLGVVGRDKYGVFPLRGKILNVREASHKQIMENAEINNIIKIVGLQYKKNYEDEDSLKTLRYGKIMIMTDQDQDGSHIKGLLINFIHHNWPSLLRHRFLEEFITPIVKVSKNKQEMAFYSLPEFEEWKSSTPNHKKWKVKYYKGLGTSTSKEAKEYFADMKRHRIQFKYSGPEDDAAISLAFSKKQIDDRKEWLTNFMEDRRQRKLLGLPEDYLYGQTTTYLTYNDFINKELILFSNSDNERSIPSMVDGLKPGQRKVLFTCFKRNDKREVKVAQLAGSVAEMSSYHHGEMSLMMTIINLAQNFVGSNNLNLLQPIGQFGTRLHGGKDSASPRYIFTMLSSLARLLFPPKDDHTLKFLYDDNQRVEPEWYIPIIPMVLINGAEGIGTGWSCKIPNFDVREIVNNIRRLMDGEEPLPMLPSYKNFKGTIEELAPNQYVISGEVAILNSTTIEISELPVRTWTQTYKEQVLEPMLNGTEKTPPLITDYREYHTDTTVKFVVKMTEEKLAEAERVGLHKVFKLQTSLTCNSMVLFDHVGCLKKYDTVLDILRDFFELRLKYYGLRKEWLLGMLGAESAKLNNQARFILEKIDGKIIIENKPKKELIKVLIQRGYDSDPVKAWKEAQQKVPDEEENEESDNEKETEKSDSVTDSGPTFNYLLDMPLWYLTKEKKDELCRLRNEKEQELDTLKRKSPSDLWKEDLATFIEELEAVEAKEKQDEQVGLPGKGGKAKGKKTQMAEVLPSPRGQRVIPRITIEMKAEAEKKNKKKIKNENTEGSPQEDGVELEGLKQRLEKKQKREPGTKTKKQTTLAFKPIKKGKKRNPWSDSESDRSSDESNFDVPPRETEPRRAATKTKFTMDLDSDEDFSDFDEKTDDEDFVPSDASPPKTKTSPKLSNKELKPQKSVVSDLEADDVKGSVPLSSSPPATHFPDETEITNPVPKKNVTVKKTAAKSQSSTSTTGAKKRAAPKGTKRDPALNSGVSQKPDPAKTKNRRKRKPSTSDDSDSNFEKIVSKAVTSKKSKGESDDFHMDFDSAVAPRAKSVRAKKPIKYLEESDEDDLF

human cancer cell lines = conditions: single agent; typical range; read-out: antineoplastic activity against human cancer cell lines (IC50); cited from earlier work
[4] = test system: human peripheral blood mononuclear cells (PBMC); conditions: cited from earlier work

| IC50 (DLD-1 cells; Homo sapiens, DLD-1, incubation time 20 hours) [µM] | IC50 (DLD-1 cells; Homo sapiens, DLD-1, incubation time 72 hours) [µM] | Compound | IC50 (DLD-1 cells; incubation time 20 hours) [µM] | IC50 (DLD-1 cells; incubation time 72 hours) [µM] | time for hydrolysis of β-lapachone from the conjugate ([1]; pH 11.4) [min] | time to complete release of β-lapachone from the conjugate ([1]; phosphate buffer pH 9.6, about 0.1 mg/ml) [days] | IC50 (NCM-460 cells; incubation time 20 hours) [µM] | IC50 (NCM-460 cells; incubation time 72 hours) [µM] | in vitro inhibition of human DNA Topoisomerase I [2] | in vitro inhibition of human DNA Topoisomerase II [3] | IC50 (human cancer cell lines) [µM] | cytotoxic effects on normal fresh or proliferating human PBMC [4] | IC50 (NCM-460 cells; Homo sapiens, NCM460, incubation time 20 hours) [µM] | IC50 (NCM-460 cells; Homo sapiens, NCM460, incubation time 72 hours) [µM] |
| --- | --- | --- | --- | --- | --- | --- | --- | --- | --- | --- | --- | --- | --- | --- |
|  |  | 5-(acetyloxy)-2,2-dimethyl-3,4-dihydro-2H-benzo[h]chromen-6-yl glycinate γ-poly-L-glutamate | 4.42 | 1.39 | 20 | 2 to 3 | 8.12 | 3.66 |  |  |  |  |  |  |
| 3.13 | 1.71 | CC1(C)CCC2=C(O1)c1ccccc1C(=O)C2=O [β-lapachone, 3,4-dihydro-2,2-dimethyl-2H-naphtho[1,2-b]pyran-5,6-dione, reference compound] |  |  |  |  |  |  | potent in vitro inhibition | potent in vitro inhibition | 1 to 10 | No cytotoxic effects were observed | 8.19 | 3.25 |
|  |  | (2,2-dimethyl-5-oxo-3,4-dihydro-2H,5H-spiro[benzo[h]chromene-6,2′-[1,3]dioxolan]-4′-yl)methyl γ-poly-L-glutamate sodium | > 100 | > 100 |  |  | > 100 | > 100 |  |  |  |  |  |  |
